ChEMBL document CHEMBL1139025, “Biological studies of photoinducible phenol quaternary ammonium derivatives” (2006)
Active and inactive are the calls of the source. The rule behind the calls is not given here.

What was measured:
Format in all cases: functional
[1] = test system: Nucleic Acid; assay: Inhibition of DNA transcription by photoactivation at 10 uM
[2] = test system: THP-1; assay: Apoptotic activity against human THP1 cells at 0.05 mM
[3] = test system: THP-1; assay: Apoptotic activity against illuminated human THP1 cells at 0.05 mM

Structure (SMILES)	Activity [1]	Activity [2] [%]	Activity [3] [%]
C[N+](C)(C)Cc1cc(O)c(C[N+](C)(C)C)cc1O	Active	–	–
C[N+](C)(C)Cc1cc(-c2ccc(O)c(C[N+](C)(C)C)c2)ccc1O.[I-].[I-]	Active	3.01	62.03
